assay: logP determination by HPLC (EEC-Directive 79/831 Annex V. A8); type: physicochemical; details: gradient method, acetonitrile/0.1% aqueous phosphoric acid

SMILES	logP	chromatographic logP
CON=C(C(=O)N(C)SC(F)(Cl)Cl)c1ccccc1Oc1ncnc(Oc2cccc(Cl)c2)c1F [Example 117]	5.14	
CON=C(C(=O)N(C)SC(F)(Cl)Cl)c1ccccc1Oc1ncnc(Oc2ccc(Cl)c(Cl)c2)c1F [Example 115]	5.58	
CON=C(C(=O)N(C)SC(F)(Cl)Cl)c1ccccc1Oc1ncnc(Oc2cc(Cl)ccc2C)c1F [Example 125]	5.46	
CON=C(C(=O)N(C)C(=O)N(C)SC(F)(Cl)Cl)c1ccccc1Oc1ccccc1 [Example 49]	4.53	
CON=C(C(=O)N(C)SC(=O)OC)c1ccccc1CON=C(C)c1cccc(Cl)c1 [Example 81]	4.71	
CCOC(=O)N(SC(F)(Cl)Cl)C(=O)C(=NOC)c1ccccc1COc1ccccc1C [Example 30]	5.35	
CON=C(C(=O)N(C)SC(F)(Cl)Cl)c1ccccc1Oc1ncnc(Oc2ccc(Br)cc2)c1F [Example 104]	5.19	
CON=C(C(=O)N(C)SC(F)(F)F)c1ccccc1COc1cccc(-c2ccccc2)c1 [Example 66]	5.36	
CON=C(C(=O)N(C)SC(F)(Cl)Cl)c1ccccc1Oc1ncnc(Oc2ccc(F)cc2F)c1F [Example 116]	4.85	
CON=C(C(=O)N(C)SC(F)(Cl)Cl)c1ccccc1Oc1ncnc(Oc2ccccc2C#N)c1F [Example 119]	4.28	
CON=C(C(=O)N(C)SC(F)(Cl)Cl)c1ccccc1Oc1ncnc(Oc2ccccc2OC(F)(F)F)c1F [Example 93]	5.2	
CCOC(=O)N(C)C(=O)C(=NOC)c1ccccc1CON=C(C)c1cccc(C(F)(F)F)c1 [Example 38]	4.91	
CON=C(C(=O)N(C)SC(F)(Cl)Cl)c1ccccc1Oc1ncnc(Oc2ccc(I)cc2)c1F [Example 127]	5.35	
CON=C(C(=O)N(C)SN(C)C(=O)C(=NOC)c1ccccc1COc1ccccc1C)c1ccccc1COc1ccccc1C [Example 45]		6.1
CON=C(C(=O)N(C)SC(F)(Cl)Cl)c1ccccc1Oc1ccc(OC(F)(F)F)cc1Cl [Example 44]	5.87	
CON=C(C(=O)N(C)Sc1ccc(OC(F)(F)F)c(Cl)c1)c1ccccc1COc1ccccc1C [Example 23]	5.99	

SMILES	logP	chromatographic logP
CON=C(C(=O)N(C)SC(=O)OC)c1ccccc1Oc1ccccc1 [Example 43]	3.59	
CON=C(C(=O)N(C)SN(C)C(=O)OC)c1ccccc1COc1ccccc1C [Example 8]	4.24	
CON=C(C(=O)N(C)SC(F)(Cl)Cl)c1ccccc1Oc1ncnc(Oc2ccc(Cl)cc2Cl)c1F [Example 102]	5.76	
CN(SC(F)(Cl)Cl)C(=O)C(=NOCF)c1ccccc1Oc1ncnc(Oc2ccccc2Cl)c1F [Example 98]	4.84	
CON=C(C(=O)N(C)SC(F)(Cl)Cl)c1ccccc1Oc1ncnc(Oc2ccccc2C(C)(C)C)c1F [Example 111]	5.73	
CON=C(C(=O)N(C)SC(F)(Cl)Cl)c1ccccc1Oc1ncnc(Oc2cccc(Cl)c2C)c1F [Example 86]	5.59	
CON=C(C(=O)N(SC(F)(Cl)Cl)C1CC1)c1ccccc1COc1ccccc1C [Example 60]	5.58	
CON=C(C(=O)N(C)SC(F)(F)F)c1ccccc1Oc1ccccc1 [Example 50]	4.38	
CON=C(C(=O)N(C)SC(F)(Cl)Cl)c1ccccc1Oc1ncnc(Oc2ccccc2F)c1F [Example 105]	4.73	
CON=Cc1ccccc1Oc1ncnc(Oc2ccccc2C(=NOC)C(=O)N(C)SC(F)(Cl)Cl)c1F [Example 140]	5.03	
CON=C(C(=O)N(C)SC(F)(Cl)Cl)c1ccccc1Oc1cc(Oc2cccc(Cl)c2C)ncn1 [Example 141]	5.29	
CON=C(C(=O)N(C)SC(F)(Cl)Cl)c1ccccc1Oc1ncnc(Oc2cc(Cl)cc(Cl)c2)c1F [Example 103]	5.71	
CON=C(C(=O)N(C)SC(F)(Cl)Cl)c1ccccc1CON=C(C)c1cccc(C(F)(F)F)c1 [Example 32]	5.74	
CON=C(C(=O)N(C)SC(F)(Cl)Cl)c1ccccc1Oc1ncnc(Oc2ccccc2Cl)c1F [Example 3]	5.05	
CON=C(C(=O)N(C)SC(F)(Cl)Cl)c1ccccc1Oc1ncnc(Oc2ccc(OC(F)(F)F)cc2)c1F [Example 133]	5.3	
CCOC(=O)N(C(=O)OCC)C(=O)C(=NOC)c1ccccc1COc1ccccc1C [Example 29]	4.42	

From patent US6403600B1, “Methoximinophenylacetic acid amides” (Bayer Aktiengesellschaft, priority 1998, dated 2002)
